Counter-ions that a name gives are not always drawn.
How the values were obtained:
Type in all cases: in vivo
[1] = tested on: glyphosate-resistant and glufosinate-resistant corn variety 765-30; assay: Foliar spray of corn at V7 stage in outdoor replicated field plots, corn variety 765-30 (Example 2, Table 3); conditions: for percent control of glyphosate-resistant and glufosinate-resistant corn, 9 DAT / percent control of glyphosate-resistant and glufosinate-resistant corn, 16 DAT: variety 765-30
Source text: (§1) Two varieties of corn were foliarly sprayed with mixtures of ethyl [3-[2-chloro-4-fluoro-5-(1-methyl-6-trifluoromethyl-2,4-dioxo-1,2,3,4-tetrahydropyrimidin-3-yl)phenoxy]-2-pyridyloxy]acetate and the potassium salt of glyphosate in outdoor replicated field plots. In addition, mixtures of ethyl [3-[2-chloro-4-fluoro-5-(1-methyl-6-trifluoromethyl-2,4-dioxo-1,2,3,4-tetrahydropyrimidin-3-yl)phenoxy]-2-pyridyloxy]acetate and glufosinate, and N,N′-dimethyl-4,4′-bipyridinium dichloride alone were foliarly sprayed. One corn variety was glyphosate-resistant and the other variety was both glyphosate and glufosinate resistant. The corn plants were at the V7 (plants with seven leaves with visible collars, about 30 to 40 inches tall) stage of development at the time of treatment. Roundup® PowerMax (available from Monsanto Company) was used as the source of the potassium salt of glyphosate. The adjuvant non-ionic surfactant was applied with ethyl [3-[2-chloro-4-fluoro-5-(1-methyl-6-trifluoromethyl-2,4-dioxo-1,2,3,4-tetrahydropyrimidin-3-yl)phenoxy]-2-pyridyloxy]acetate. The effects of the treatments were observed and recorded 9 and 16 days after the treatments (“9 DAT” and “16 DAT”, respectively).

[2] = tested on: glyphosate-resistant corn variety P1690; assay: Foliar spray of corn at V7 stage in outdoor replicated field plots, corn variety P1690 (Example 2, Table 2); conditions: for percent control of glyphosate-resistant corn, 9 DAT / percent control of glyphosate-resistant corn, 16 DAT: variety P1690
Source text: as §1

[3] = tested on: volunteer glyphosate-resistant corn; assay: Foliar spray of glyphosate-resistant corn at V4 stage in outdoor replicated field plots (Example 1)
Source text: Glyphosate-resistant corn was foliarly sprayed with mixtures of ethyl [3-[2-chloro-4-fluoro-5-(1-methyl-6-trifluoromethyl-2,4-dioxo-1,2,3,4-tetrahydropyrimidin-3-yl)phenoxy]-2-pyridyloxy]acetate and the potassium salt of glyphosate in outdoor replicated field plots. The corn was at the V4 (plants with four leaves with visible collars, about 6 to 8 inches tall) stage of development at the time of treatment. Roundup® PowerMax (available from Monsanto Company) was used as the source of the potassium salt of glyphosate. The adjuvant crop oil concentrate was applied with ethyl [3-[2-chloro-4-fluoro-5-(1-methyl-6-trifluoromethyl-2,4-dioxo-1,2,3,4-tetrahydropyrimidin-3-yl)phenoxy]-2-pyridyloxy]acetate. The effects of the treatments were observed and recorded 9 and 23 days after the treatments (“9 DAT” and “23 DAT”, respectively).

[4] = Treatment 15, 500 g active/hectare
[5] = Treatment 2, 1054 g active/hectare
[6] = Treatment 8, 1260 g active/hectare
[7] = Treatment 18, 840 g active/hectare
[8] = Treatment 3, 5.6 g active/hectare
[9] = Treatment 4, 10.1 g active/hectare
[10] = Treatment 5, 20.2 g active/hectare
[11] = Treatment 6, 30.3 g active/hectare
[12] = Treatment 7, 40.3 g active/hectare
[13] = Treatment 2, 1.25 g active/hectare
[14] = Treatment 3, 2.5 g active/hectare
[15] = Treatment 4, 5 g active/hectare
[16] = Treatment 5, 10 g active/hectare
[17] = Treatment 6, 20 g active/hectare
[18] = Treatment 7, 30 g active/hectare

CP(=O)(O)CCC(N)C(=O)O (stereo not drawn) [Glufosinate, reference compound]
percent control of glyphosate-resistant and glufosinate-resistant corn, 9 DAT [1, 4]: 3.8% | percent control of glyphosate-resistant and glufosinate-resistant corn, 16 DAT [1, 4]: 0% | percent control of glyphosate-resistant corn, 9 DAT [2, 4]: 92.7% | percent control of glyphosate-resistant corn, 16 DAT [2, 4]: 100%

O=C(O)CNCP(=O)(O)O [Glyphosate, potassium salt, reference compound]
percent control of volunteer glyphosate-resistant corn, 9 DAT [3, 5]: 0% | percent control of volunteer glyphosate-resistant corn, 23 DAT [3, 5]: 0% | activity against glyphosate-resistant corn when applied alone ([3]; applied alone, Table 1): no activity | percent control of glyphosate-resistant and glufosinate-resistant corn, 9 DAT [1, 6]: 0% | percent control of glyphosate-resistant and glufosinate-resistant corn, 16 DAT [1, 6]: 0% | activity against glyphosate-resistant corn when applied alone ([1]; applied alone, Table 3, variety 765-30): no activity | percent control of glyphosate-resistant corn, 9 DAT [2, 6]: 0% | percent control of glyphosate-resistant corn, 16 DAT [2, 6]: 0% | activity against glyphosate-resistant corn when applied alone ([2]; applied alone, Table 2, variety P1690): no activity

C[n+]1ccc(-c2cc[n+](C)cc2)cc1.[Cl-].[Cl-] [N,N′-dimethyl-4,4′-bipyridinium dichloride, reference compound]
percent control of glyphosate-resistant and glufosinate-resistant corn, 9 DAT [1, 7]: 81.3% | percent control of glyphosate-resistant and glufosinate-resistant corn, 16 DAT [1, 7]: 92.5% | percent control of glyphosate-resistant corn, 9 DAT [2, 7]: 84% | percent control of glyphosate-resistant corn, 16 DAT [2, 7]: 77.5%

CCOC(=O)COc1ncccc1Oc1cc(-n2c(=O)cc(C(F)(F)F)n(C)c2=O)c(F)cc1Cl [ethyl [3-[2-chloro-4-fluoro-5-(1-methyl-6-trifluoromethyl-2,4-dioxo-1,2,3,4-tetrahydropyrimidin-3-yl)phenoxy]-2-pyridyloxy]acetate]
percent control of volunteer glyphosate-resistant corn, 9 DAT [3, 8]: 68.78% | percent control of volunteer glyphosate-resistant corn, 23 DAT [3, 8]: 6.7% | percent control of volunteer glyphosate-resistant corn, 9 DAT [3, 9]: 95.75% | percent control of volunteer glyphosate-resistant corn, 23 DAT [3, 9]: 87.74% | percent control of volunteer glyphosate-resistant corn, 9 DAT [3, 10]: 99.89% | percent control of volunteer glyphosate-resistant corn, 23 DAT [3, 10]: 99.89% | percent control of volunteer glyphosate-resistant corn, 9 DAT [3, 11]: 100% | percent control of volunteer glyphosate-resistant corn, 23 DAT [3, 11]: 100% | percent control of volunteer glyphosate-resistant corn, 9 DAT [3, 12]: 100% | percent control of volunteer glyphosate-resistant corn, 23 DAT [3, 12]: 100% | percent control of glyphosate-resistant and glufosinate-resistant corn, 9 DAT [1, 13]: 16.15% | percent control of glyphosate-resistant and glufosinate-resistant corn, 16 DAT [1, 13]: 25% | percent control of glyphosate-resistant and glufosinate-resistant corn, 9 DAT [1, 14]: 49.78% | percent control of glyphosate-resistant and glufosinate-resistant corn, 16 DAT [1, 14]: 52.5% | percent control of glyphosate-resistant and glufosinate-resistant corn, 9 DAT [1, 15]: 42.3% | percent control of glyphosate-resistant and glufosinate-resistant corn, 16 DAT [1, 15]: 40% | percent control of glyphosate-resistant and glufosinate-resistant corn, 9 DAT [1, 16]: 57.6% | percent control of glyphosate-resistant and glufosinate-resistant corn, 16 DAT [1, 16]: 42.5% | percent control of glyphosate-resistant and glufosinate-resistant corn, 9 DAT [1, 17]: 81.8% | percent control of glyphosate-resistant and glufosinate-resistant corn, 16 DAT [1, 17]: 91.3% | percent control of glyphosate-resistant and glufosinate-resistant corn, 9 DAT [1, 18]: 95% | percent control of glyphosate-resistant and glufosinate-resistant corn, 16 DAT [1, 18]: 100% | percent control of glyphosate-resistant corn, 9 DAT [2, 13]: 16.15% | percent control of glyphosate-resistant corn, 16 DAT [2, 13]: 25% | percent control of glyphosate-resistant corn, 9 DAT [2, 14]: 49.78% | percent control of glyphosate-resistant corn, 16 DAT [2, 14]: 55% | percent control of glyphosate-resistant corn, 9 DAT [2, 15]: 44.48% | percent control of glyphosate-resistant corn, 16 DAT [2, 15]: 40% | percent control of glyphosate-resistant corn, 9 DAT [2, 16]: 57.6% | percent control of glyphosate-resistant corn, 16 DAT [2, 16]: 42.5% | percent control of glyphosate-resistant corn, 9 DAT [2, 17]: 81.8% | percent control of glyphosate-resistant corn, 16 DAT [2, 17]: 100% | percent control of glyphosate-resistant corn, 9 DAT [2, 18]: 95% | percent control of glyphosate-resistant corn, 16 DAT [2, 18]: 100%

Reference: US10045532B2, “Synergistic herbicidal mixtures for glyphosate-resistant volunteer corn control” (Valent U.S.A., Corporation, priority 2015, dated 2018)
